Reference: patent publication US10299475B2, “Pesticide” (ISHIHARA SANGYO KAISHA, LTD., priority 2013, dated 2019)

Tested on: Haemaphysalis longicornis (larvae)
Experiment: Test for examining effect on Haemaphysalis longicornis (larvae), coated vial contact test
Format: in vivo
Conditions: 100 ppm solution coated on plastic vial, 20 larvae, 24 hours after contact, 25° C., constant dark, relative humidity 80-100%
Text: Test for Examining Effect on Haemaphysalis longicornis (larvae)

Structure (SMILES) | mortality at 100 ppm [%]
CC(C)CNC(=O)c1ccc(CCOc2ccc(Cl)c(I)c2)cc1 [1-326, N-isobutyl-4-(2-(4-chloro-3-iodophenoxy)ethyl)benzamide] | ≥ 90
CC(C)CNC(=O)c1ccc(CCOc2ccc(Cl)c(-c3ccc(Cl)cc3)c2)cc1 [4-115, N-isobutyl-4-(2-(4-chloro-3-(4-chlorophenyl)phenoxy)ethyl)benzamide] | ≥ 90
CC(C)CNC(=O)c1ccc(CCOc2cccc(-c3ccc(Cl)cc3Cl)c2)cc1 [4-187, N-isobutyl-4-(2-(3-(2,4-dichlorophenyl)phenoxy)ethyl)benzamide] | ≥ 90
CC(C)CNC(=O)c1ccc(CCOc2ccc(OC(F)(F)F)cc2)cc1 [1-25, N-isobutyl-4-(2-(4-(trifluoromethoxy)phenoxy)ethyl)benzamide] | ≥ 90
CC(C)CNC(=O)c1ccc(CCOc2cccc(Br)c2)cc1 [1-9, N-isobutyl-4-(2-(3-bromophenoxy)ethyl)benzamide] | ≥ 90
CC(C)CNC(=O)c1ccc(CCOc2ccc(F)c(-c3ccccc3)c2)cc1 [4-6, N-isobutyl-4-(2-(4-fluoro-3-phenylphenoxy)ethyl)benzamide] | ≥ 90
CC(C)CNC(=O)c1ccc(CCOc2cccc(OC(F)(F)F)c2)cc1 [1-24, N-isobutyl-4-(2-(3-(trifluoromethoxy)phenoxy)ethyl)benzamide] | ≥ 90
